Experimental data published in patent US12168012B2, “NLRP3 inflammasome inhibitors” (Novartis AG, priority 2018, dated 2024).

System: NLRP3 inflammasome
Experiment: IL-1β secretion assay
Type: cell-based
Conditions: Homo sapiens, THP-1, 3 h, PMA-differentiated THP-1 cells, 15 μM nigericin, HTRF
Experimental: 10 μL supernatant was removed, and IL-1p levels were monitored using an HTRF assay (CisBio, #62IL1PEC) according to manufacturers' instructions. Viability and pyroptosis was monitored with the addition of PrestoBlue cell viability reagent (Life Technologies, #A13261) directly to the cell culture plate.
IC50 values were calculated from the plot of percentage of inhibition versus the inhibitor concentration by a logistics fit according to: y=A2+(A1−A2)/(1+(x/IC50)^p) where y is the %-inhibition at the inhibitor concentration, x. A1 is the lowest inhibition value, i.e. 0%, and A2 the maximum inhibition value, i.e. 100%. The exponent, p, is the Hill coefficient. The curve fitting was conducted with an internally developed software suite.
NLRP3-dependent IL-1β secretion was stimulated in PMA-differentiated THP-1 cells by the addition of nigericin, and cytokines were measured in the […] after 3 hours. As discussed above, activation of the NLRP3 inflammasome requires both an NF-kB-dependent priming step and the addition of a NLRP3 activator.

SMILES | IC50
CC(C)c1nn(CC(=O)Nc2nccs2)c(=O)c2cc3sc(Cl)cc3n12 [Ex 11, 2-(2-Chloro-5-isopropyl-8-oxothieno[2′,3′:4,5]pyrrolo[1,2-d][1,2,4]triazin-7(8H)-yl)-N-(thiazol-2-yl)acetamide] | 62.5 nM
CC(C)c1nn(CC(=O)Nc2cncs2)c(=O)c2cc3sc(Cl)cc3n12 [Ex 12, 2-(2-Chloro-5-isopropyl-8-oxothieno[2′,3′:4,5]pyrrolo[1,2-d][1,2,4]triazin-7(8H)-yl)-N-(thiazol-5-yl)acetamide] | 23.7 nM
CC(C)c1nn(CC(=O)Nc2cccnc2Cl)c(=O)c2cc3sc(Cl)cc3n12 [Ex 13, 2-(2-Chloro-5-isopropyl-8-oxothieno[2′,3′:4,5]pyrrolo[1,2-d][1,2,4]triazin-7(8H)-yl)-N-(2-chloropyridin-3-yl)acetamide] | 94 nM
CC(C)c1nn(CC(=O)Nc2ccc(F)nc2)c(=O)c2cc3sc(Cl)cc3n12 [Ex 14, 2-(2-Chloro-5-isopropyl-8-oxothieno[2′,3′:4,5]pyrrolo[1,2-d][1,2,4]triazin-7(8H)-yl)-N-(6-fluoropyridin-3-yl)acetamide] | 90.6 nM
CC(C)c1nn(CC(=O)Nc2ncncc2F)c(=O)c2cc3sc(Cl)cc3n12 [Ex 15, 2-(2-Chloro-5-isopropyl-8-oxothieno[2′,3′:4,5]pyrrolo[1,2-d][1,2,4]triazin-7(8H)-yl)-N-(5-fluoropyrimidin-4-yl)acetamide] | 5.4 nM
CC(C)c1nn(CC(=O)Nc2ncncc2Cl)c(=O)c2cc3sc(Cl)cc3n12 [Ex 16, 2-(2-Chloro-5-isopropyl-8-oxothieno[2′,3′:4,5]pyrrolo[1,2-d][1,2,4]triazin-7(8H)-yl)-N-(5-chloropyrimidin-4-yl)acetamide] | 57.3 nM
CC(C)c1nn(CC(=O)N[C@@H]2CC[C@@H](N)C2)c(=O)c2cc3sc(Cl)cc3n12 [Ex 22, N-((1R,3R)-3-Aminocyclopentyl)-2-(2-chloro-5-isopropyl-8-oxothieno[2′,3′:4,5]pyrrolo[1,2-d][1,2,4]triazin-7(8H)-yl)acetamide] | 408 nM
CC(C)c1nn(CC(=O)N[C@]2(C)C[C@@H](O)C2)c(=O)c2cc3sc(Cl)cc3n12 [Ex 23, 2-(2-Chloro-5-isopropyl-8-oxothieno[2′,3′:4,5]pyrrolo[1,2-d][1,2,4]triazin-7(8H)-yl)-N-((1r,3r)-3-hydroxy-1-methylcyclobutyl)acetamide] | 452 nM
CC(C)c1nn(CC(=O)Nc2ccnn2C)c(=O)c2cc3sc(Cl)cc3n12 [Ex 57, 2-(2-Chloro-5-isopropyl-8-oxothieno[2′,3′:4,5]pyrrolo[1,2-d][1,2,4]triazin-7(8H)-yl)-N-(1-methyl-1H-pyrazol-5-yl)acetamide] | 61.5 nM
CC(C)(O)c1nn(CC(=O)Nc2ccc3cn[nH]c3c2)c(=O)c2cc3sc(Cl)cc3n12 [Ex 65, 2-(2-Chloro-5-(2-hydroxypropan-2-yl)-8-oxothieno[2′,3′:4,5]pyrrolo[1,2-d][1,2,4]triazin-7(8H)-yl)-N-(1H-indazol-6-yl)acetamide] | 6.2 nM
Cc1n[nH]c2cc(NC(=O)Cn3nc(C(C)(C)O)n4c(cc5sc(Cl)cc54)c3=O)ccc12 [Ex 66, 2-(2-Chloro-5-(2-hydroxypropan-2-yl)-8-oxothieno[2′,3′:4,5]pyrrolo[1,2-d][1,2,4]triazin-7(8H)-yl)-N-(3-methyl-1H-indazol-6-yl)acetamide] | 7.8 nM
CC(C)(O)c1nn(CC(=O)Nc2ccc3cc[nH]c3c2)c(=O)c2cc3sc(Cl)cc3n12 [Ex 67, 2-(2-Chloro-5-(2-hydroxypropan-2-yl)-8-oxothieno[2′,3′:4,5]pyrrolo[1,2-d][1,2,4]triazin-7(8H)-yl)-N-(1H-indol-6-yl)acetamide] | 212 nM
CC(C)c1nn(CC(=O)N[C@H]2C[C@](C)(O)C2)c(=O)c2cc3sc(Cl)cc3n12 [Ex 71, 2-(2-Chloro-5-isopropyl-8-oxothieno[2′,3′:4,5]pyrrolo[1,2-d][1,2,4]triazin-7(8H)-yl)-N-((1r,3r)-3-hydroxy-3-methylcyclobutyl)acetamide] | 15.9 nM
CC(C)c1nn(CC(=O)NC2CC3(CC(O)C3)C2)c(=O)c2cc3sc(Cl)cc3n12 (stereo not shown) [Ex 73, 2-(2-Chloro-5-isopropyl-8-oxothieno[2′,3′:4,5]pyrrolo[1,2-d][1,2,4]triazin-7(8H)-yl)-N-(6-hydroxyspiro[3.3]heptan-2-yl)acetamide] | 14.5 nM
CC(C)c1nn(CC(=O)N[C@H]2C[C@](O)(C(F)(F)F)C2)c(=O)c2cc3sc(Cl)cc3n12 [Ex 74, 2-(2-Chloro-5-isopropyl-8-oxothieno[2′,3′:4,5]pyrrolo[1,2-d][1,2,4]triazin-7(8H)-yl)-N-((1s,3s)-3-hydroxy-3-(trifluoromethyl)cyclobutyl)acetamide] | 4.4 nM
CC(C)c1nn(CC(=O)N[C@@H]2CCCN(CCOC(F)(F)F)C2)c(=O)c2cc3sc(Cl)cc3n12 [Ex 78, (R)-2-(2-Chloro-5-isopropyl-8-oxothieno[2′,3′:4,5]pyrrolo[1,2-d][1,2,4]triazin-7(8H)-yl)-N-(1-(2-(trifluoromethoxy)ethyl)piperidin-3-yl)acetamide] | 71.4 nM

SMILES | IC50
CC(C)(O)CCNC(=O)Cn1nc(C(C)(C)O)n2c(cc3sc(Cl)cc32)c1=O [Ex 80] | 60.7 nM
CC(C)c1nn(CC(=O)NCCC(C)(C)O)c(=O)c2cc3sc(F)cc3n12 [Ex 84, 2-(2-Fluoro-5-isopropyl-8-oxothieno[2′,3′:4,5]pyrrolo[1,2-d][1,2,4]triazin-7(8H)-yl)-N-(3-hydroxy-3-methylbutyl)acetamide] | 12.9 nM
CC(C)c1nn(CC(=O)NC[C@@H](C)O)c(=O)c2cc3sc(F)cc3n12 [Ex 85, (R)-2-(2-Fluoro-5-isopropyl-8-oxothieno[2′,3′:4,5]pyrrolo[1,2-d][1,2,4]triazin-7(8H)-yl)-N-(2-hydroxypropyl)acetamide] | 130 nM
CC(C)c1nn(CC(=O)N[C@H]2C[C@](C)(O)C2)c(=O)c2cc3sc(F)cc3n12 [Ex 86, 2-(2-Fluoro-5-isopropyl-8-oxothieno[2′,3′:4,5]pyrrolo[1,2-d][1,2,4]triazin-7(8H)-yl)-N-((1r,3r)-3-hydroxy-3-methylcyclobutyl)acetamide] | 41.2 nM
CC(C)c1nn(CC(=O)N[C@H]2C[C@@](C)(O)C2)c(=O)c2cc3sc(F)cc3n12 [Ex 87, 2-(2-Fluoro-5-isopropyl-8-oxothieno[2′,3′:4,5]pyrrolo[1,2-d][1,2,4]triazin-7(8H)-yl)-N-((1s,3s)-3-hydroxy-3-methylcyclobutyl)acetamide] | 1 nM
Cc1nc2c(cc3c(=O)n(CC(=O)N[C@@H]4CCCN(C)C4)nc(C(C)C)n32)s1 [Ex 92, (R)-2-(5-Isopropyl-2-methyl-8-oxothiazolo[5′,4′:4,5]pyrrolo[1,2-d][1,2,4]triazin-7(8H)-yl)-N-(1-methylpiperidin-3-yl)acetamide] | 65.2 nM
CC(C)c1nn(CC(=O)N[C@H]2C[C@@](C)(O)C2)c(=O)c2cc3scnc3n12 [Ex 93, N-((1s,3s)-3-Hydroxy-3-methylcyclobutyl)-2-(5-isopropyl-8-oxothiazolo[5′,4′:4,5]pyrrolo[1,2-d][1,2,4]triazin-7(8H)-yl)acetamide] | 0.8 nM
CC(C)c1nn(CC(=O)NCCC(C)(C)O)c(=O)c2cc3scnc3n12 [Ex 94, N-(3-Hydroxy-3-methylbutyl)-2-(5-isopropyl-8-oxothiazolo[5′,4′:4,5]pyrrolo[1,2-d][1,2,4]triazin-7(8H)-yl)acetamide] | 64.9 nM
CC(C)c1nn(CC(=O)NC[C@@H](C)O)c(=O)c2cc3scnc3n12 [Ex 95, (R)-N-(2-Hydroxypropyl)-2-(5-isopropyl-8-oxothiazolo[5′,4′:4,5]pyrrolo[1,2-d][1,2,4]triazin-7(8H)-yl)acetamide] | 246 nM
CC(C)c1nn(CC(=O)N[C@@H]2CCC(=O)N(C)C2)c(=O)c2cc3scnc3n12 [Ex 97, (R)-2-(5-Isopropyl-8-oxothiazolo[5′,4′:4,5]pyrrolo[1,2-d][1,2,4]triazin-7(8H)-yl)-N-(1-methyl-6-oxopiperidin-3-yl)acetamide] | 18.3 nM
CC(C)c1nn(CC(=O)NC2CCCC2)c(=O)c2cc3scnc3n12 [Ex 98, N-Cyclopentyl-2-(5-isopropyl-8-oxothiazolo[5′,4′:4,5]pyrrolo[1,2-d][1,2,4]triazin-7(8H)-yl)acetamide] | 271 nM
CC(C)c1nn(CC(=O)NC2CCCC2)c(=O)c2cc3sc(Cl)cc3n12 [Ex 101, 2-(2-chloro-5-Isopropyl-8-oxothieno[2′,3′:4,5]pyrrolo[1,2-d][1,2,4]triazin-7(8H)-yl)-N-cyclopentylacetamide] | 381 nM
CC(C)c1nn(CC(=O)N[C@H]2CCNC2)c(=O)c2cc3sc(Cl)cc3n12 [Ex 102, (S)-2-(2-Chloro-5-isopropyl-8-oxothieno[2′,3′:4,5]pyrrolo[1,2-d][1,2,4]triazin-7(8H)-yl)-N-(pyrrolidin-3-yl)acetamide] | 886 nM
CC(C)c1nn(CC(=O)N[C@@H]2CCN(C)C2)c(=O)c2cc3sc(Cl)cc3n12 [Ex 104, (R)-2-(2-Chloro-5-isopropyl-8-oxothieno[2′,3′:4,5]pyrrolo[1,2-d][1,2,4]triazin-7(8H)-yl)-N-(1-methylpyrrolidin-3-yl)acetamide] | 254 nM
CC(C)c1nn(CC(=O)N[C@H]2CCN(C)C2)c(=O)c2cc3sc(Cl)cc3n12 [Ex 105, (S)-2-(2-Chloro-5-isopropyl-8-oxothieno[2′,3′:4,5]pyrrolo[1,2-d][1,2,4]triazin-7(8H)-yl)-N-(1-methylpyrrolidin-3-yl)acetamide] | 838 nM
